For one experiment, the system named is A549. The experiment in a line: Cytotoxicity against human A549 cells after 48 hrs by MTT assay. In kind it is functional, cell-based. The note with it: A549, 48 h.
The nature of experiment [1]: Cytotoxicity against human sSPC-A1 cells after 48 hrs by MTT assay. The note with it: sSPC-A1, 48 h. In kind it is functional, cell-based. (Tetrazolium dyes change colour on reduction, which living cells bring about.)

As for `CCOC(=O)c1c(C)oc2nc(Nc3ccccc3)nc(N3CCN(C)CC3)c12`, the IC50 (usually the concentration that gives 50% inhibition) in the experiment on A549 was determined as 0.8 µM; in experiment [1], 26.1 µM.

With `CCCCNc1nc(Nc2ccccc2)nc2oc(C)c(C(=O)OCC)c12`, the IC50 in the experiment with A549 was 2.7 µM; in experiment [1], 50.2 µM.

Consider `CCOC(=O)c1c(C)oc2nc(Nc3ccccc3)nc(NC(C)C)c12`, for which the IC50 in the experiment on A549 is 21.5 µM.

In the case of `CCOC(=O)c1c(C)oc2nc(Nc3ccccc3)nc(NCCO)c12`, the results for the IC50 (in the experiment with A549; in experiment [1]) were 13 µM and 24.2 µM, respectively.

As to `CCOC(=O)c1c(C)oc2nc(Nc3ccccc3)nc(N3CCOCC3)c12`, the IC50 in the experiment on A549 was determined as 15.2 µM; in experiment [1] it was 69 µM.

In the experiment on A549, `CCCCNc1nc(Nc2cccc(C)c2)nc2oc(C)c(C(=O)OCC)c12` came in with an IC50 of 9 µM. In other words, the single-digit micromolar range.

As to `CCOC(=O)c1c(C)oc2nc(Nc3cccc(C)c3)nc(N3CCOCC3)c12`, the half-inhibitory concentration (IC50) in the experiment on A549 came out at 14 µM; in experiment [1], 70.8 µM.

For `CCOC(=O)c1c(C)oc2nc(Nc3cccc(C)c3)nc(N3CCN(C)CC3)c12`, the figures for the IC50 (in the experiment on A549; in experiment [1]) were 5.5 µM and 18.2 µM, respectively.

In the experiment on A549, `CCOC(=O)c1c(C)oc2nc(Nc3cccc(C)c3)nc(N(CC)CC)c12` had an IC50 of 8.8 µM.

With `CCOC(=O)c1c(C)oc2nc(Nc3cccc(C)c3)nc(NC(C)C)c12`, the figures for the IC50 (in the experiment on A549; in experiment [1]) were 8.6 µM and 46.3 µM, respectively.

The values above are taken from ChEMBL document CHEMBL1268830, “Efficient synthesis and biological evaluation of some 2,4-diamino-furo[2,3-d]pyrimidine derivatives” (Bioorg Med Chem Lett, 2010).
